In ChEMBL document CHEMBL4680094, “Insights of a Lead Optimization Study and Biological Evaluation of Novel 4-Hydroxytamoxifen Analogs as Estrogen-Related Receptor γ (ERRγ) Inverse Agonists” (J Med Chem, 2016):
pIC50: −log10 of the molar value.

How the values were obtained:
[1] = biological target: T1, Estrogen-related receptor gamma (Homo sapiens, UniProt P62508)
T1 sequence (P62508 whole entry): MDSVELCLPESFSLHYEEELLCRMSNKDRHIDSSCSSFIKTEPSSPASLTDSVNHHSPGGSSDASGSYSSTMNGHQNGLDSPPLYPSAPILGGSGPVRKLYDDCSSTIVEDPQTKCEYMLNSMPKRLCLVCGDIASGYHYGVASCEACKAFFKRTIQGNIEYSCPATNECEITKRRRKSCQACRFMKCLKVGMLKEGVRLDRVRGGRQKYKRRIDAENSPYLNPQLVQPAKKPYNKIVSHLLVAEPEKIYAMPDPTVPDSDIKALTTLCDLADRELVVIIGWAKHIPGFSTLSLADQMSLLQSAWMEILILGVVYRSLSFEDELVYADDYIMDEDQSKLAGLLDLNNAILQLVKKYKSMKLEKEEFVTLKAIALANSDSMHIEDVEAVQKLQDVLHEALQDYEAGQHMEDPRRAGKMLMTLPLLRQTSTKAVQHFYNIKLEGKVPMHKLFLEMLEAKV

[2] = biological target: T2, Steroid hormone receptor ERR1 (Homo sapiens, UniProt P11474); experiment: Binding affinity to GST-tagged ERRalpha LBD (unknown origin) using fluorescein PGC1alpha as coactivator incubated for 1 hr by LanthaScreen TR-FRET co-regulator assay
T2 sequence (P11474 whole entry): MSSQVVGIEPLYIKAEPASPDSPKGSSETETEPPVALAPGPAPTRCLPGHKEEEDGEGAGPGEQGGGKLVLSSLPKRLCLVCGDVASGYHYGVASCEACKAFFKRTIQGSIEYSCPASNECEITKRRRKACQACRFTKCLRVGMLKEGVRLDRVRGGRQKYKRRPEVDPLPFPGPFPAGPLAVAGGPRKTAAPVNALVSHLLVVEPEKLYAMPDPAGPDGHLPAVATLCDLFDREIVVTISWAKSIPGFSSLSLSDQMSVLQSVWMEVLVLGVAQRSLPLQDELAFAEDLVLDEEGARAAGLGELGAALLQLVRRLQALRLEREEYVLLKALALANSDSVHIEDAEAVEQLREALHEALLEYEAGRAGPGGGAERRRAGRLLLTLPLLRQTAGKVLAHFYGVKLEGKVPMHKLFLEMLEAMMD

[3] = biological target: T3, Steroid hormone receptor ERR2 (Homo sapiens, UniProt O95718); experiment: Binding affinity to GST-tagged ERRbeta LBD (unknown origin) using fluorescein PGC1alpha as coactivator incubated for 1 hr by LanthaScreen TR-FRET co-regulator assay
T3 sequence (O95718 whole entry): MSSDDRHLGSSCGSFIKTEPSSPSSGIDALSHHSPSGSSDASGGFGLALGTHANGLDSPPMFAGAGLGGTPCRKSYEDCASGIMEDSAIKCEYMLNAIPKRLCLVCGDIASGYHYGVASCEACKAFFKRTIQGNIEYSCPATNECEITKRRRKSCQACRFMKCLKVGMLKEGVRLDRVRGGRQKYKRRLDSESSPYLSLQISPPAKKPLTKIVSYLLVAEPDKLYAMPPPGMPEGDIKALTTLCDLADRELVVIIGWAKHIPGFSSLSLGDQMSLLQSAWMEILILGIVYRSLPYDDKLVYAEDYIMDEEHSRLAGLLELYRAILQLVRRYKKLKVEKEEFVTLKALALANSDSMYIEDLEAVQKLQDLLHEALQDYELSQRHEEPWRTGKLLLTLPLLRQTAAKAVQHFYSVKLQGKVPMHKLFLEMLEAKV

Estrogen receptor = biological target: T4, Estrogen receptor (Homo sapiens, UniProt P03372); experiment: Binding affinity to GST-tagged ERalpha LBD (unknown origin) using fluorescein PGC1alpha as coactivator incubated for 1 hr by LanthaScreen TR-FRET co-regulator assay
T4 sequence (P03372 whole entry): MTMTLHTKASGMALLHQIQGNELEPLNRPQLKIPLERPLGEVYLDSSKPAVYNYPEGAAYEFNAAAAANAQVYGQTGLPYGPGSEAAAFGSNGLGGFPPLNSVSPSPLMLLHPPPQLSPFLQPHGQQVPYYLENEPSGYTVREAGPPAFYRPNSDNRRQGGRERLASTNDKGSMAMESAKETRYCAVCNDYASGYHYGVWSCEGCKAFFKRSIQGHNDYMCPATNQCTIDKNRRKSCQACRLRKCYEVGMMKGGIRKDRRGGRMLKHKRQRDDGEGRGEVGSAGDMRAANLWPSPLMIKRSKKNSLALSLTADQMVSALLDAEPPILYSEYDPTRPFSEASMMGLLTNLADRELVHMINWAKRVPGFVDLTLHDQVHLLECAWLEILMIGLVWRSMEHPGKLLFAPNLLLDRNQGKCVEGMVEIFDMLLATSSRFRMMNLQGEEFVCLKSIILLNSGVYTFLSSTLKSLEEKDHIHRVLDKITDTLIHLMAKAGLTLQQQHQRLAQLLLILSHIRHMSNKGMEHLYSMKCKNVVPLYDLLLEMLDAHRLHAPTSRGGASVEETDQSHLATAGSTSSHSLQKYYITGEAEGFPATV

Row | Compound | pIC50 [1] | pIC50 [2] | pIC50 [3] | pIC50 (Estrogen receptor)
1 | OCCC/C(=C(\c1ccc(Br)cc1)c1ccc(OCCN2CC2)cc1)c1ccccc1 | 5.82 | – | – | –
2 | CN1CCC[C@H]1CCOc1ccc(/C(=C(/CCCO)c2ccccc2)c2ccc(O)cc2)cc1 | – | < 5.00 | 5.07 | 6.14
3 | CN1C[C@H]1CCCOc1ccc(/C(=C(/CCCO)c2ccccc2)c2ccc(O)cc2)cc1 (stereo not given in full) | 6.11 | – | – | –
4 | O=C(Nc1ccc(/C(=C(/CCCO)c2ccccc2)c2ccc(O)cc2)cc1)C1CCCN1 (stereo not given) | < 5.00 | – | – | –
5 | O=[N+]([O-])c1ccc(/C(=C(\CCCO)c2ccccc2)c2ccc(N3CCC4(CCNC4)C3)cc2)cc1 (stereo not given) | 5.08 | – | – | –
6 | CN1C[C@@H]1CCCOc1ccc(/C(=C(/CCCO)c2ccccc2)c2ccc(O)cc2)cc1 (stereo not given in full) | 5.96 | – | – | –
7 | CN1CCN(Cc2ccc(/C(=C(/CCCO)c3ccccc3)c3ccc(O)cc3)cc2)CC1 | 5.63 | – | – | –
8 | OCCC/C(=C(\c1ccc(Br)cc1)c1ccc(CN2CCCCC2)cc1)c1ccccc1 | 5.64 | – | – | –
9 | CN1CCN(Cc2ccc(/C(=C(/CCCO)c3ccccc3)c3ccc([N+](=O)[O-])cc3)cc2)CC1 | < 5.00 | – | – | –
10 | C[Si](C)(CN1CCCC1)c1ccc(/C(=C(/CCCO)c2ccccc2)c2ccc(O)cc2)cc1 | 6.09 | < 5.00 | < 5.00 | < 5.00
11 | OCCC/C(=C(\c1ccc(O)cc1)c1ccc(OCCN2CCNCC2)cc1)c1ccccc1 | 5.98 | – | – | –
12 | OCCC/C(=C(\c1ccc(O)cc1)c1ccc2oc(CCN3CCNCC3)cc2c1)c1ccccc1 | 6.05 | – | – | –
13 | OCCC/C(=C(\c1ccc(O)cc1)c1ccc(N2CCOCC2)cc1)c1ccccc1 | 5.65 | – | – | –
14 | OCCC/C(=C(\c1ccc(O)cc1)c1ccc2oc(CCN3CCCCC3)cc2c1)c1ccccc1 | 6.57 | < 5.00 | < 5.00 | 6.18
15 | C[Si](C)(CN1C[C@H]2CNC[C@H]2C1)c1ccc(/C(=C(/CCCO)c2ccccc2)c2ccc(O)cc2)cc1 | 6.34 | – | – | –
16 | C[Si](C)(CN1CCNCC1)c1ccc(/C(=C(/CCCO)c2ccccc2)c2ccc(O)cc2)cc1 | 5.89 | – | – | –
17 | Cc1ccc(/C(=C(\CCCO)c2ccccc2)c2ccc3oc(CCN4CCNCC4)cc3c2)cc1 | 5.67 | – | – | –
18 | C[Si](C)(CN1CCCCC1)c1ccc(/C(=C(/CCCO)c2ccccc2)c2ccc(O)cc2)cc1 | 6.61 | < 5.00 | < 5.00 | 5.36

Row | Compound | pIC50 [1] | pIC50 [2] | pIC50 [3] | pIC50 (Estrogen receptor)
19 | OCCC/C(=C(\c1ccc(O)cc1)c1ccc2c(ccn2CCN2CCCCC2)c1)c1ccccc1 | 5.44 | – | – | –
20 | CN1CCN(C[Si](C)(C)c2ccc(/C(=C(/CCCO)c3ccccc3)c3ccc(O)cc3)cc2)CC1 | 5.90 | – | – | –
21 | OCCC/C(=C(\c1ccc(O)cc1)c1ccc(OCCN2C[C@H]3CNC[C@H]3C2)cc1)c1ccccc1 | 6.78 | < 5.00 | < 5.00 | 6.39
22 | OCCC/C(=C(\c1ccc(O)cc1)c1ccc(OCCN2CC3CC3C2)cc1)c1ccccc1 (stereo not given) | – | < 5.00 | – | –
23 | OCCC/C(=C(\c1ccc(O)cc1)c1ccc(OCCN2CCC[C@@H]2CO)cc1)c1ccccc1 | – | < 5.00 | < 5.00 | –
24 | CN1CCC[C@@H]1CCOc1ccc(/C(=C(/CCCO)c2ccccc2)c2ccc(O)cc2)cc1 | – | < 5.00 | < 5.00 | 6.11
25 | OCCC/C(=C(\c1ccc(O)cc1)c1ccc(OCCN2CCC3(CCNC3)C2)cc1)c1ccccc1 (stereo not given) | 6.49 | < 5.00 | < 5.00 | 5.25
26 | CN(C)CCn1cc(-c2ccc(/C(=C(/CCCO)c3ccccc3)c3ccc(O)cc3)cc2)nn1 | 5.20 | – | – | –
27 | O=C(CN1C[C@H]2CNC[C@H]2C1)Nc1ccc(/C(=C(/CCCO)c2ccccc2)c2ccc(O)cc2)cc1 | 5.13 | – | – | –
28 | OCCC/C(=C(\c1ccc(O)cc1)c1ccc2c(c1)CCN2CCN1CCCC1)c1ccccc1 | 5.10 | – | – | –
29 | OCCC/C(=C(\c1ccc(O)cc1)c1ccc(OCCN2CC2)cc1)c1ccccc1 | 7.15 | < 5.00 | 5.43 | –
30 | O=C(CN1CCCCC1)Nc1ccc(/C(=C(/CCCO)c2ccccc2)c2ccc(O)cc2)cc1 | 5.56 | – | – | –
31 | CC(C)(C)OC(=O)N1CCC(n2cc(/C(=C(/CCCO)c3ccccc3)c3ccc(O)cc3)cn2)CC1 | < 5.00 | – | – | –
32 | OCCC/C(=C(\c1ccc(O)cc1)c1ccc(OCCN2C[C@H]3C[C@H]3[C@H]2CO)cc1)c1ccccc1 | – | < 5.00 | – | –
33 | OCCC/C(=C(\c1ccc(O)cc1)c1ccc(NCCN2CCCCC2)cc1)c1ccccc1 | 5.81 | – | – | –
34 | OCCC/C(=C(\c1ccc(O)cc1)c1ccc(OCCN2CCCC2)cc1)c1ccccc1 | – | < 5.00 | < 5.00 | 6.19
35 | CN1C[C@@H]1CCCOc1ccc(/C(=C(/CCCO)c2ccccc2)c2ccc(Br)cc2)cc1 (stereo not given in full) | 5.78 | – | – | –
36 | CN1CCN(CCOc2ccc(/C(=C(/CCCO)c3ccccc3)c3ccc(O)cc3)cc2)CC1 | 5.66 | – | – | –
